Laboratory results from PMC13462928 (Nature Communications, 2026).
Like-named read-outs stand apart in the source and are kept apart here.

Experiments:
[1] = target: NUDT5 and the respective E3 ligase (Homo sapiens, UniProt P40337+Q9UKK9); test: NanoBRET ternary complex formation assay NUDT5 and the respective E3 ligase (VHL or CRBN) in HEK293 cells; type: cell-based; conditions: for Ternary complex formation below 1 µM (20 h): HEK293, 20 h; for Ternary complex formation below 1 µM (4 h): HEK293, 4 h
Chain of NUDT5 and the respective E3 ligase (P40337 whole entry, one chain of several): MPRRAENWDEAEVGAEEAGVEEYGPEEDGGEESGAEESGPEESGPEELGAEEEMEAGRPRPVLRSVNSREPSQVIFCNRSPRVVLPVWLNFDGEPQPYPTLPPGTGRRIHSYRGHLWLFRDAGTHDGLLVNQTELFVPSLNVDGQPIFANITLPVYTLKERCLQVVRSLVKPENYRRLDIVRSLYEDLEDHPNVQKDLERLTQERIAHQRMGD
Experimental: NanoBRET ternary complex assays were performed following the manufacturer’s instructions (Promega). […] After 4 h or 20 h of incubation, a mix of substrate in assay medium was added to each well. Donor and acceptor signals were measured in a PHERAstar FSX or FS plate reader and analyzed by GraphPad Prism (v.9 or v.10). The acceptor/donor ratio was calculated, the no ligand background signal was subtracted, and multiplied by 1000 to yield mBRET units. Data were then normalized to DMSO.

NUDT5 [2] = target: NUDT5 (Homo sapiens, UniProt Q9UKK9); test: NanoBRET NUDT5 target engagement (TE) assay in HEK293 cells; type: cell-based; design: expressed in transfected cells; host or cells: HEK293
NUDT5 [3] = target: T1, NUDT5 (Homo sapiens, UniProt Q96SW2+Q9UKK9); test: Western blot NUDT5 degradation in HEK293 cells; type: cell-based; conditions: 20 h, Western blot
Experimental: (§1) Pellets were lysed on ice using RIPA buffer (25 mM Tris (pH 7.5), 150 mM NaCl, 1% Igepal, 1% SDS, 0.1% SDC, 1x protease inhibitor (Roche, cOmplete mini, 11836170001), 1x phosphatase (Thermo Scientific, Halt, 78429), 0.1% benzonase (Merck, E1014-5KU)), incubated for 15 min and then centrifuged for 20 min at 4 °C at maximum speed in a table-top centrifuge. […] Membranes were blocked with 6% milk in PBS-T for 1 h at RT, washed, and then incubated with primary antibody diluted in PBS-T supplemented with 0.1% NaN3 overnight at 4 °C. Membranes were incubated with fluorophore-conjugated secondary antibodies, Alexa Fluor 680 anti-rabbit IgG (Life Technologies, A21109), Alexa Fluor 750 anti-mouse IgG (Life Technologies, A21037) diluted 1:5000 in 2% milk PBS-T, washed and imaged with an Odyssey imager (Licor).

HAP1 cell lines = test: TH1760/6-TG cell viability assay in HAP1 cell lines; type: cell-based, human; conditions: 72 h
Experimental: After 72 h incubation, cell viability was measured using the CellTiter-Glo assay (Promega). Signals were normalized to the control condition.

NUDT5 [4] = target: T1, NUDT5; test: Western blot NUDT5 degradation in HAP1 cells; type: cell-based; design: endogenous in cells; host or cells: HAP1; conditions: HAP1 cells, Western blot, Fig. 3B
Experimental: as §1

HAP1 cells = test: Titration of NUDT5 degraders and controls against fixed 6-TG (2 µg/mL) in HAP1 cells, cell viability; type: cell-based, human; conditions: HAP1, 2 µg/mL 6-TG, 72 h
Experimental: Cells were counted and adjusted to a density of 25,000 cells/mL in culture medium. […] Plates were sealed with breathable film and incubated at 37 °C with 5% CO₂ for 72 hours. Cell viability was assessed using the CellTiter-Glo Luminescent Cell Viability Assay, following the manufacturer’s protocol (Promega). Luminescence was measured using a PHERAstar FS or FSX plate reader, and data were analyzed using GraphPad Prism software (versions 9 or 10). Results were normalized to the vehicle control (DMSO).

[5] = read-out: EC50 (µM), TE 4h, HEK293, 4 h, Supplementary Table 1
[6] = read-out: EC50 (nM) TE (4h), HEK293, 4 h, Supplementary Table 3

Cc1ncsc1-c1ccc(CNC(=O)C2CC(O)CN2C(=O)C(NC(=O)CCCCCOCCCCCOCCCCCCN2CCCC(n3nc(-c4ccc(Oc5ccccc5)cc4)c4c(N)ncnc43)C2)C(C)(C)C)cc1 (centres unmarked) [ASM32]
Ternary complex formation below 1 µM (20 h) ([1]; Supplementary Table 1): No
EC50 (NUDT5 [2]; [5]): > 10 µM

Cn1c(=O)c2c(nc(N3CCN(C(=O)CCCCNC(=O)COc4cccc5c4C(=O)N(C4CCC(=O)NC4=O)C5=O)CC3)n2Cc2nnc(-c3ccc(Cl)c(Cl)c3)o2)n(C)c1=O (centres unmarked) [ASM57]
Ternary complex formation below 1 µM (20 h) ([1]; Supplementary Table 2): No

Cn1c(=O)c2c(nc(N3CCN(C(=O)CCOCCOCCNc4cccc5c4C(=O)N(C4CCC(=O)NC4=O)C5=O)CC3)n2Cc2nnc(-c3ccc(Cl)c(Cl)c3)o2)n(C)c1=O (centres unmarked) [ASM68]
Ternary complex formation below 1 µM (20 h) ([1]; Supplementary Table 2): Yes

Cn1c(=O)c2c(nc(N3CCN(CC4CCN(c5ccc6c(c5)C(=O)N(C5CCC(=O)NC5=O)C6=O)CC4)CC3)n2Cc2nnc(-c3ccc(Cl)c(Cl)c3)o2)n(C)c1=O (centres unmarked) [ASM70]
Ternary complex formation below 1 µM (20 h) ([1]; Supplementary Table 3): Yes
EC50 (NUDT5 [2]; [6]): 0.042 µM

Cn1c(=O)c2c(nc(N3CCN(CC4CCN(c5cc6c(cc5F)C(=O)N(C5CCC(=O)NC5=O)C6=O)CC4)CC3)n2Cc2nnc(-c3ccc(Cl)c(Cl)c3)o2)n(C)c1=O (centres unmarked) [ASM71]
Ternary complex formation below 1 µM (20 h) ([1]; Supplementary Table 3): No
EC50 (NUDT5 [2]; [6]): 0.017 µM

Cc1ncsc1-c1ccc(CNC(=O)C2CC(O)CN2C(=O)C(NC(=O)CCCCCOCCOCCOCCCCCCN2CCCC(n3nc(-c4ccc(Oc5ccccc5)cc4)c4c(N)ncnc43)C2)C(C)(C)C)cc1 (centres unmarked) [ASM73]
Ternary complex formation below 1 µM (20 h) ([1]; Supplementary Table 1): No
EC50 (NUDT5 [2]; [5]): > 10 µM

Cc1ncsc1-c1ccc(CNC(=O)C2CC(O)CN2C(=O)C(NC(=O)COCCOCCCCCCC(=O)N2CCC(n3nc(-c4ccc(Oc5ccccc5)cc4)c4c(N)ncnc43)CC2)C(C)(C)C)cc1 (centres unmarked) [ASM74]
Ternary complex formation below 1 µM (20 h) ([1]; Supplementary Table 1): No
EC50 (NUDT5 [2]; [5]): > 10 µM

Cc1ncsc1-c1ccc(CNC(=O)C2CC(O)CN2C(=O)C(NC(=O)COCCOCCCCCCC(=O)N2CCCC(n3nc(-c4ccc(Oc5ccccc5)cc4)c4c(N)ncnc43)C2)C(C)(C)C)cc1 (centres unmarked) [ASM75]
Ternary complex formation below 1 µM (20 h) ([1]; Supplementary Table 1): No
EC50 (NUDT5 [2]; [5]): > 10 µM

Cc1ncsc1-c1ccc(CNC(=O)C2CC(O)CN2C(=O)C(NC(=O)COCCOCCCCCCC(=O)N2CCN(c3nc4c(c(=O)n(C)c(=O)n4C)n3Cc3nnc(-c4ccc(Cl)c(Cl)c4)o3)CC2)C(C)(C)C)cc1 (centres unmarked) [ASM076]
Ternary complex formation below 1 µM (20 h) ([1]; Supplementary Table 2): No
EC50 (NUDT5 [2]; read-out: EC50 (nM) TE (4h), HEK293, 4 h, Supplementary Table 2): 2 µM

Cn1c(=O)c2c(nc(N3CCN(C(=O)CCCCCCNc4cccc5c4C(=O)N(C4CCC(=O)NC4=O)C5=O)CC3)n2Cc2nnc(-c3ccc(Cl)c(Cl)c3)o2)n(C)c1=O (centres unmarked) [ASM84]
Ternary complex formation below 1 µM (20 h) ([1]; Supplementary Table 2): Yes

Cn1c(=O)c2c(nc(N3CCN(CCC4CCN(c5ccc6c(c5)C(=O)N(C5CCC(=O)NC5=O)C6=O)CC4)CC3)n2Cc2nnc(-c3ccc(Cl)c(Cl)c3)o2)n(C)c1=O (centres unmarked) [ASM102]
Ternary complex formation below 1 µM (20 h) ([1]; Supplementary Table 3): Yes
EC50 (NUDT5 [2]; [6]): 0.102 µM

Cn1c(=O)c2c(nc(N3CCN(CC4CCN(c5ccc6c(c5)C(=O)N(C5CCC(=O)NC5=O)C6=O)C4)CC3)n2Cc2nnc(-c3ccc(Cl)c(Cl)c3)o2)n(C)c1=O (centres unmarked) [ASM105]
Ternary complex formation below 1 µM (20 h) ([1]; Supplementary Table 3): No
EC50 (NUDT5 [2]; [6]): 0.103 µM

Cn1c(=O)c2c(nc(N3CCN(CC4CCN(c5cccc6c5C(=O)N(C5CCC(=O)NC5=O)C6=O)CC4)CC3)n2Cc2nnc(-c3ccc(Cl)c(Cl)c3)o2)n(C)c1=O (centres unmarked) [ASM110]
Ternary complex formation below 1 µM (20 h) ([1]; Supplementary Table 3): No
EC50 (NUDT5 [2]; [6]): 0.061 µM

Cn1c(=O)c2c(nc(N3CCN(C(=O)CCCNc4cccc5c4C(=O)N(C4CCC(=O)NC4=O)C5=O)CC3)n2Cc2nnc(-c3ccc(Cl)c(Cl)c3)o2)n(C)c1=O (centres unmarked) [ASM111]
Ternary complex formation below 1 µM (20 h) ([1]; Supplementary Table 2): Yes
effect on NUDT5 protein levels (NUDT5 [3]): no significant effects on NUDT5 protein levels

Cn1c(=O)c2c(nc(N3CCN(C(=O)CCCCCNc4cccc5c4C(=O)N(C4CCC(=O)NC4=O)C5=O)CC3)n2Cc2nnc(-c3ccc(Cl)c(Cl)c3)o2)n(C)c1=O (centres unmarked) [ASM122]
Ternary complex formation below 1 µM (4 h) ([1]; Supplementary Table 2): Yes
Ternary complex formation below 1 µM (20 h) ([1]; Supplementary Table 2): Yes
effect on NUDT5 protein levels (NUDT5 [3]): no significant effects on NUDT5 protein levels

Cn1c(=O)c2c(nc(N3CCN(C(=O)CCCCNc4cccc5c4C(=O)N(C4CCC(=O)NC4=O)C5=O)CC3)n2Cc2nnc(-c3ccc(Cl)c(Cl)c3)o2)n(C)c1=O (centres unmarked) [ASM124]
Ternary complex formation below 1 µM (4 h) ([1]; Supplementary Table 2): Yes
Ternary complex formation below 1 µM (20 h) ([1]; Supplementary Table 2): Yes

Cc1ncsc1-c1ccc(CNC(=O)C2CC(O)CN2C(=O)C(NC(=O)CCOCCOCCOCCC(=O)N2CCN(c3nc4c(c(=O)n(C)c(=O)n4C)n3Cc3nnc(-c4ccc(Cl)c(Cl)c4)o3)CC2)C(C)(C)C)cc1 (centres unmarked) [ASM131]
Ternary complex formation below 1 µM (4 h) ([1]; Supplementary Table 2): No
Ternary complex formation below 1 µM (20 h) ([1]; Supplementary Table 2): No

Cn1c(=O)c2c(nc(N3CCN(C(=O)CCCCCCCCNc4cccc5c4C(=O)N(C4CCC(=O)NC4=O)C5=O)CC3)n2Cc2nnc(-c3ccc(Cl)c(Cl)c3)o2)n(C)c1=O (centres unmarked) [ASM133]
Ternary complex formation below 1 µM (4 h) ([1]; Supplementary Table 2): Yes
Ternary complex formation below 1 µM (20 h) ([1]; Supplementary Table 2): Yes

Cn1c(=O)c2c(nc(N3CCN(C(=O)CCCCCCCNc4cccc5c4C(=O)N(C4CCC(=O)NC4=O)C5=O)CC3)n2Cc2nnc(-c3ccc(Cl)c(Cl)c3)o2)n(C)c1=O (centres unmarked) [ASM134]
Ternary complex formation below 1 µM (4 h) ([1]; Supplementary Table 2): Yes
Ternary complex formation below 1 µM (20 h) ([1]; Supplementary Table 2): Yes

Cn1c(=O)c2c(nc(N3CCN(C(=O)CCCCCCCCOc4cccc5c4C(=O)N(C4CCC(=O)NC4=O)C5=O)CC3)n2Cc2nnc(-c3ccc(Cl)c(Cl)c3)o2)n(C)c1=O (centres unmarked) [ASM135]
Ternary complex formation below 1 µM (4 h) ([1]; Supplementary Table 2): Yes
Ternary complex formation below 1 µM (20 h) ([1]; Supplementary Table 2): Yes

Cn1c(=O)c2c(nc(N3CCN(C(=O)CCCCCCOc4cccc5c4C(=O)N(C4CCC(=O)NC4=O)C5=O)CC3)n2Cc2nnc(-c3ccc(Cl)c(Cl)c3)o2)n(C)c1=O (centres unmarked) [ASM136]
Ternary complex formation below 1 µM (4 h) ([1]; Supplementary Table 2): No
Ternary complex formation below 1 µM (20 h) ([1]; Supplementary Table 2): No

Cn1c(=O)c2c(nc(N3CCN(C(=O)CCOCCNc4cccc5c4C(=O)N(C4CCC(=O)NC4=O)C5=O)CC3)n2Cc2nnc(-c3ccc(Cl)c(Cl)c3)o2)n(C)c1=O (centres unmarked) [ASM137]
Ternary complex formation below 1 µM (4 h) ([1]; Supplementary Table 2): Yes
Ternary complex formation below 1 µM (20 h) ([1]; Supplementary Table 2): Yes
effect on NUDT5 protein levels (NUDT5 [3]): no significant effects on NUDT5 protein levels

Nc1ncnc2c1c(-c1ccc(Oc3ccccc3)cc1)nn2[C@@H]1CCCN(C(=O)c2cn(CCOCCOCCOCCNc3cccc4c3C(=O)N(C3CCC(=O)NC3=O)C4=O)nn2)C1 (some centres unmarked) [Compound P13I1, reference compound]
Ternary complex formation below 1 µM (20 h) ([1]; Supplementary Table 1): No
EC50 (NUDT5 [2]; [5]): 8.9 µM

Nc1ncnc2c1c(-c1ccc(Oc3ccccc3)cc1)nn2C1CCN(CCOCCOCC(=O)Nc2ccc3c(c2)C(=O)N(C2CCC(=O)NC2=O)C3=O)CC1 (centres unmarked) [MT-802, reference compound]
Ternary complex formation below 1 µM (20 h) ([1]; Supplementary Table 1): No
EC50 (NUDT5 [2]; [5]): 1.3 µM

O=C(c1ccc2[nH]ccc2c1)N1CCN(S(=O)(=O)c2ccc3[nH]c(=O)oc3c2)CC1 [TH1760]
sensitization of cells towards 6-TG (HAP1 cell lines; HAP1 WT, 6-TG 1 µM fixed): sensitized HAP1 WT cells towards 6-TG in a dose-dependent manner
effect on cell viability without 6-TG (HAP1 cell lines; HAP1 cell lines, up to 50 µM): does not affect HAP1 cell viability

CN1C(=O)CCC(N2C(=O)c3ccc(N4CCN(CC5CCN(C(=O)N6CCN(c7nc8c(c(=O)n(C)c(=O)n8C)n7Cc7nnc(-c8ccc(Cl)c(Cl)c8)o7)CC6)CC5)CC4)cc3C2=O)C1=O (centres unmarked) [dNUDT5nc]
NUDT5 degradation (NUDT5 [4]): preventing NUDT5 degradation
EC50 (NUDT5 [2]; HEK293 cells, Supplementary Fig. 6B, read-out: NUDT5 NanoBRET target engagement EC50): 0.028 µM
NUDT5 engagement in live cells (NUDT5 [2]; NanoBRET): engaged their cognate target NUDT5 in live cells
rescue of 6-TG-induced toxicity (HAP1 cells): failed to rescue cell viability
